Structures can show the parent of a compound that is named as a salt.
Molecular target: T1, 5-HT1 -like receptor (Oryctolagus cuniculus, UniProt P49144)
T1 construct: contraction of the saphenous vein of New Zealand White rabbits; from tissue; host or cells: saphenous vein of New Zealand White rabbits
Assay: Agonist-mediated contraction of rabbit saphenous vein
Design: species or system New Zealand White rabbits
Conditions: from plots of percentage 5-HT (1 μm) response against agonist concentration, read-out: pEC50 (-log10 EC50), agonist potency (converted)
Description: The activity of test compounds as agonists of the 5-HT1 -like receptor was measured in terms of their ability to mediate contraction of the saphenous vein of New Zealand White rabbits, using the procedure described in Arch. Pharm., 1990, 342, 111. Agonist potencies were calculated as -log10 EC50 (pEC50) values, from plots of percentage 5-HT (1 μm) response against the concentration of the agonist.

T1 sequence (P49144 whole entry): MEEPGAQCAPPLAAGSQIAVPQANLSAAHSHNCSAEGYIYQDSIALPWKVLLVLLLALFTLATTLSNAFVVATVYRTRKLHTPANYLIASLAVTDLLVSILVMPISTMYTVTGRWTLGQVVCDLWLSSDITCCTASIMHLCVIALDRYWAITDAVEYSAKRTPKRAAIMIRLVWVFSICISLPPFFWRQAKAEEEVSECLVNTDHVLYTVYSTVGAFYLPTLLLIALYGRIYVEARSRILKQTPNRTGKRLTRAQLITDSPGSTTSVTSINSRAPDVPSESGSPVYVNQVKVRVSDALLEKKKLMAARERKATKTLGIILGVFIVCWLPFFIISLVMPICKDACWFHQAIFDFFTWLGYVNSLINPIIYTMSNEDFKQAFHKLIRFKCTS

SMILES: Cc1noc(-c2ccc3[nH]nc(CCN)c3c2)n1 [Example 2, 2-[5-(3-Methyl-1,2,4-oxadiazol-5-yl)-1H-indazol-3-yl])ethylamine hydrogen oxalate]
- EC50: ≤ 10 µM

Source: patent US5208248A, “Indazole-substituted five-membered heteroaromatic compounds” (Merck Sharpe & Dohme, Ltd., priority 1991, dated 1993)
